Some results are limits rather than exact numbers.

In one test the test system is HBsAg. To be noted: read-out: HBsAg EC50; HepG2.2.15 cells, supernatant on the 8th day. On the procedure:
The HBV DNA content in HepG2.2.15 cells culture supernatant was determined by real-time quantitative qPCR assay (real time-qPCR), and the HBV surface antigen content was determined by enzyme linked immunosorbent assay (ELISA). The inhibitory effect of the compound on HBV was evaluated by the EC50 value of the compound.
(§1) 2.1 Cell Line: HepG2.2.15 Cells
3.1 HepG2.2.15 cells (4×10^4 cells/well) were seeded into a 96-well plate and incubated overnight at 37° C. under 5% CO2.
3.2 On the 2nd day, the compound was diluted into 8 concentrations with 3-fold gradient. The compounds with different concentrations were added into the culture wells in duplicate wells. The final concentration of DMSO in the culture medium was 0.5%, 10 μM ETV was used as a 100%/inhibition control, and 0.5% DMSO was used as a 0% inhibition control.
3.3 On the 5th day, the culture medium was replaced with a fresh medium containing the compound.
3.4 On the 8th day, the culture medium in the culture well was collected, and a part of the sample was taken for ELISA to determine the content of hepatitis B virus S antigen, a part of the sample was taken to extract DNA with a high-throughput DNA purification kit (Qiagen-51162).
3.8 Determination of hepatitis B virus S antigen content by ELISA
50 μL of sample and standard sample were taken and added into a reaction plate respectively, followed by addition of 50 μL of enzyme conjugate into each well, the mixture was shaken and well-mixed, and placed in a bath at 37° C. for 60 minutes. The plate was then washed with washing solution 5 times, followed by addition of 50 μL of illuminating substrate into each well, the mixture was well-mixed and allowed to react at room temperature for 10 minutes in the dark. Chemiluminescence intensity was determined by a ELISA.
Calculation of the percentage of inhibition:% Inh.=(1−value of sample/value of DMSO control)×100
Calculation of EC50: The 50% inhibitory concentration (EC50) value of the compound on HBV was calculated by GraphPad Prism software.

Another test relates to HBV-DNA. Description: HBV DNA content in HepG2.2.15 cells culture supernatant by real time-qPCR. Type of test: cell-based. The conditions noted are these: supernatant on the 8th day. How it is done: as §1
3.6 15 μL of the reaction mixture was added into each well of a 96-well PCR plate, followed by addition of 10 μL of sample DNA or HBV DNA standards into each well.
3.7 PCR reaction conditions: heating at 95° C. for 10 minutes, then denaturation at 95° C. for 15 seconds, extension at 60° C. for 1 minute, a total of 40 cycles.

In another test the test system is HBV. Description: Anti-HBV activity on the hepatitis B virus mouse model (AAV-HBV). In kind it is in vivo, C57BL/6 mice. To be noted: 1 mg/kg, PO, QD. How it is done:
The AAV vector-mediated HBV infected mouse model is a fast and efficient HBV model. Using the high hepatotropism of the AAV vector, the recombinant adeno-associated type 8 virus carrying 1.3 copies of the HBV genome (rAAV8-1.3HBV) is injected into the tail vein of mice, which can efficiently introduce the carried 1.3 copy HBV genome into hepatocytes. Due to the characteristics of the AAV viral vector, the vector mediated by it can express for a long time. The AAV/HBV model can continuously replicate HBV DNA and express HBsAg and HBeAg in the liver of the mice.
The anti-HBV efficacy of the test compound in vivo was evaluated by determining the content of HBsAg in the serum of the mice after treatment with the test compound on AAV/HBV mouse mode.
C57BL/6 mice, 10% HP-f-CD as vehicle, reference compound TDF (Tenofovir), test compound, recombinant virus rAAVS-1.3HBV, main reagents of the experiment including QIAamp96 DNA kit and TaqMan® Universal PCR Master Mix, Hepatitis B Virus Surface Antigen Detection Kit, instruments including: centrifuge (Beckman Allegra X-15R), tissue grinder (QIAGEN-Tissue lyser II) and spectrophotometer (Thermo-NANODROP 1000).
a) All mice were orally administered on the 28th day after the virus injection, and the day was set as day 0. Submaxillary blood of all mice was collected for serum collection before administration. The mice were administered once a day for four weeks.
b) Submaxillary blood of all mice was collected for serum collection twice a week, the volume of the blood collected each time was approximately 100 μL.
c) On the 28th day, all mice were euthanized and the blood was collected from the heart for serum collection.
The content of HBsAg in the serum of the mice was determined by ELISA. The experimental procedure refers to the specification of HBsAg ELISA kit.
a) The anti-HBV activity of the test compound on AAV/HBV mice model was evaluated by determining the content of HBsAg in the plasma of the mice.

Regarding `CC[C@@H]1COc2cc(OCCCOC)c(Cl)cc2-c2cc(=O)c(C(=O)O)cn21` [Embodiment 1], the values for the EC50 in the test with HBsAg and with HBV-DNA were 47.2 nM and 44.7 nM, respectively.

As to `COCCCOc1cc2c(cc1Cl)-c1cc(=O)c(C(=O)O)cn1[C@H](C(C)C)CO2` [Embodiment 2], the EC50 (commonly the midpoint of the concentration-response curve) with HBsAg came to 6.59 nM; in the test with HBV-DNA, 8.75 nM.

Take `COCCCOc1cc2c(cc1Cl)-c1cc(=O)c(C(=O)O)cn1[C@H](C1CC1)CO2` [Embodiment 3]: the EC50 in the test on HBsAg was 66.2 nM; in the test with HBV-DNA, 105 nM.

With `COCCCOc1cc2c(cc1Cl)-c1cc(=O)c(C(=O)O)cn1[C@H](C1CCCC1)CO2` [Embodiment 4], the EC50 in the test with HBsAg was determined as 65.8 nM; in the test on HBV-DNA it was 11.2 nM.

In the case of `CC[C@@H](C)C1COc2cc(OCCCOC)c(Cl)cc2-c2cc(=O)c(C(=O)O)cn21` (some centres unmarked) [Embodiment 5], the EC50 with HBsAg was 28.8 nM; in the test with HBV-DNA, 21.5 nM.

In the case of `CCSCCOc1cc2c(cc1Cl)-c1cc(=O)c(C(=O)O)cn1[C@H](C(C)C)CO2` [Embodiment 7], the EC50 came out at 59.8 nM in the test with HBsAg and 35.3 nM in the test with HBV-DNA.

On to `CSCCOc1cc2c(cc1Cl)-c1cc(=O)c(C(=O)O)cn1[C@H](C(C)C)CO2` [Embodiment 8], for which the EC50 amounted to 18 nM with HBsAg and 22.2 nM in the test with HBV-DNA.

Turning to `CC(C)[C@@H]1COc2cc(OCCCSCC(=O)O)c(Cl)cc2-c2cc(=O)c(C(=O)O)cn21` [Embodiment 9], the values for the EC50 with HBsAg and in the test on HBV-DNA were 22.4 nM and 16.2 nM, respectively.

On to `CO/N=C/CCOc1cc2c(cc1Cl)-c1cc(=O)c(C(=O)O)cn1[C@H](C(C)C)CO2` [Embodiment 10], for which the EC50 turned out to be 5.05 nM in the test with HBsAg and 3.67 nM in the test with HBV-DNA.

As for `CNC(=O)OCCCOc1cc2c(cc1Cl)-c1cc(=O)c(C(=O)O)cn1[C@H](C(C)C)CO2` [Embodiment 11], the EC50 in the test on HBsAg is 15.5 nM; in the test with HBV-DNA, 14.2 nM.

As for `CCN(CC)C(=O)CCCOc1cc2c(cc1Cl)-c1cc(=O)c(C(=O)O)cn1[C@H](C(C)C)CO2` [Embodiment 12], the EC50 with HBsAg was 25.5 nM; with HBV-DNA, 19.1 nM.

On to `CC(C)[C@@H]1COc2cc(OCCOCC(F)(F)F)c(Cl)cc2-c2cc(=O)c(C(=O)O)cn21` [Embodiment 13], for which the EC50 in the test with HBsAg is 43.9 nM; in the test on HBV-DNA, 24.1 nM.

In the case of `COc1cc2c(cc1Cl)-c1cc(=O)c(C(=O)O)cn1[C@H](C(C)C)CO2` [Embodiment 14], the EC50 was determined as 22.8 nM in the test on HBsAg and 23.4 nM with HBV-DNA.

In the case of `CC(C)[C@@H]1COc2cc(OCC3CC3)c(Cl)cc2-c2cc(=O)c(C(=O)O)cn21` [Embodiment 15], the EC50 with HBsAg turned out to be 10.4 nM; in the test on HBV-DNA it was 8.66 nM.

As for `CC(C)COc1cc2c(cc1Cl)-c1cc(=O)c(C(=O)O)cn1[C@H](C(C)C)CO2` [Embodiment 16], the EC50 was 9.73 nM in the test with HBsAg and 11.4 nM in the test with HBV-DNA.

For the compound `CC(C)[C@@H]1COc2cc(OCC3CCOCC3)c(Cl)cc2-c2cc(=O)c(C(=O)O)cn21` [Embodiment 17], the EC50 amounted to 5.05 nM in the test on HBsAg and 4.77 nM in the test with HBV-DNA.

Regarding `COCCOc1cc2c(cc1Cl)-c1cc(=O)c(C(=O)O)cn1[C@H](C(C)C)CO2` [Embodiment 18], the results for the EC50 in the test with HBsAg and in the test on HBV-DNA were 34.8 nM and 34.7 nM, respectively.

As for `COCCCCOc1cc2c(cc1Cl)-c1cc(=O)c(C(=O)O)cn1[C@H](C(C)C)CO2` [Embodiment 19], the EC50 in the test with HBsAg stood at 8.15 nM; with HBV-DNA, 11.7 nM.

`CC(C)[C@@H]1COc2cc(OCCCN3CCOC3=O)c(Cl)cc2-c2cc(=O)c(C(=O)O)cn21` [Embodiment 20]: the concentration for a half-maximal effect (EC50) with HBsAg is 41.9 nM; with HBV-DNA, 45 nM.

For the compound `CC(C)[C@@H]1COc2cc(OCCCOC(F)(F)F)c(Cl)cc2-c2cc(=O)c(C(=O)O)cn21` [Embodiment 21], the EC50 in the test with HBsAg was determined as 25.9 nM; in the test with HBV-DNA, 23.2 nM.

For `CC(=O)CCCOc1cc2c(cc1Cl)-c1cc(=O)c(C(=O)O)cn1[C@H](C(C)C)CO2` [Embodiment 22], the EC50 in the test on HBsAg came out at 11.4 nM; in the test on HBV-DNA, 11.2 nM.

In the case of `COC(=O)NCCCOc1cc2c(cc1Cl)-c1cc(=O)c(C(=O)O)cn1[C@H](C(C)C)CO2` [Embodiment 23], the results for the EC50 in the test on HBsAg and in the test on HBV-DNA were 33.6 nM and 24.1 nM, respectively.

For the compound `COCCCOc1cc2c(cc1Cl)-c1cc(=O)c(C(=O)O)cn1[C@H](C(C)(C)C)CO2` [Embodiment 24], the EC50 was found to be 0.743 nM with HBsAg and 0.457 nM in the test with HBV-DNA.

Turning to `COCCCOc1cc2c(cc1Br)-c1cc(=O)c(C(=O)O)cn1[C@H](C(C)(C)C)CO2` [Embodiment 25], the EC50 with HBsAg was 0.769 nM; in the test with HBV-DNA, under 0.457 nM.

For `COCCCOc1cc2c(cc1C#N)-c1cc(=O)c(C(=O)O)cn1[C@H](C(C)C)CO2` [Embodiment 26], the EC50 with HBsAg was 3.33 nM; in the test on HBV-DNA it was 2.19 nM.

For `COCCCOc1cc2c(cc1C)-c1cc(=O)c(C(=O)O)cn1[C@H](C(C)(C)C)CO2` [Embodiment 27], the values for the EC50 in the test with HBsAg and in the test with HBV-DNA were 2.51 nM and 1.1 nM, respectively.

Turning to `COCCCOc1cc2c(cc1C1CC1)-c1cc(=O)c(C(=O)O)cn1[C@H](C(C)(C)C)CO2` [Embodiment 28], the EC50 in the test with HBsAg worked out at 0.718 nM; in the test with HBV-DNA, 0.508 nM.

Turning to `COCCCOc1cc2c(cc1C(C)=O)-c1cc(=O)c(C(=O)O)cn1[C@H](C(C)C)CO2` [Embodiment 29], the results for the EC50 with HBsAg and in the test on HBV-DNA were 1.34 nM and 0.507 nM, respectively.

`CC(C)OC(=O)OCOP(=O)(CO[C@H](C)Cn1cnc2c(N)ncnc21)OCOC(=O)OC(C)C.O=C(O)/C=C/C(=O)O` [TDF, reference compound]: the “HBsAg content in the plasma of the mice” value with HBV (day 4) stood at 4.56 IU/mL; in the test with HBV (day 7) it was 4.59 IU/mL; in the test with HBV (day 11), 4.66 IU/mL; in the test on HBV (day 14) it was 4.50 IU/mL; in the test with HBV (day 18), 4.61 IU/mL; in the test with HBV (day 21), 4.52 IU/mL. Moreover, the entries for the “HBsAg content in the plasma of the mice” value with HBV (day 25), in the test on HBV (day 28) and in the test with HBV (day −1) were 4.33 IU/mL, 4.34 IU/mL and 4.59 IU/mL, respectively.

(Values after US20200197409A1, “HEPATITIS B VIRUS SURFACE ANTIGEN INHIBITOR” (FUJIAN COSUNTER PHARMACEUTICAL CO., LTD., priority 2017, published 2020).)
